Assay results taken from US20240368168A1, “SARM1 ENZYME ACTIVITY INHIBITOR AND APPLICATION THEREOF” (ARTIVILA BIOPHARMA, priority 2021, published 2024).
Structures can show the parent of a compound that is named as a salt.

molecular target: T1, dN-SARM1 protein (Homo sapiens, UniProt Q6SZW1); test: In vitro biochemical assay for inhibiting SARM1 enzymatic activity (IC50), PC6 fluorescence method; settings: 50 μM NAD, 50 μM PC6, 50 μM NMN activator
T1 construct: the N-terminal mitochondrial localization signal peptide of SARM1 was removed
T1 sequence (Q6SZW1 28-724): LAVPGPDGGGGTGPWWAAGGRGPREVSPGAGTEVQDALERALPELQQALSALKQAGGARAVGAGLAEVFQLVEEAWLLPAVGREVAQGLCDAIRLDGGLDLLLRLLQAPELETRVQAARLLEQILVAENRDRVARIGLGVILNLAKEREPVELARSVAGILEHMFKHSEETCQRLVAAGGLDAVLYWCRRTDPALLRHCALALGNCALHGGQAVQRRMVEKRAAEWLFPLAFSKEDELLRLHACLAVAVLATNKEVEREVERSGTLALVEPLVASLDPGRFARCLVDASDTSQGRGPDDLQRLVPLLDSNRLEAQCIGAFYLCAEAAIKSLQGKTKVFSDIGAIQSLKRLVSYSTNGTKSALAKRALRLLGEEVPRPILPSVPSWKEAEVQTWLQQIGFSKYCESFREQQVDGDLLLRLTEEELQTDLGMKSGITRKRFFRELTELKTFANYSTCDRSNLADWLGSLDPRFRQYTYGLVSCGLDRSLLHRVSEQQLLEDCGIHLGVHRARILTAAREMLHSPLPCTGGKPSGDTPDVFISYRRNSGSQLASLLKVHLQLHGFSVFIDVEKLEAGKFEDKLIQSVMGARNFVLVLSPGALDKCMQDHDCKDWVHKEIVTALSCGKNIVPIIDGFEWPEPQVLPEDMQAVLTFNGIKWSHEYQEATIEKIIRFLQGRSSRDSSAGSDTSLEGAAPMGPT
Experimental: 200 μM compound was first added to a solution of 0.05 μg/ml dN-SARM1 in 50 mM Tris-HCl (pH 7.5). Half of the mixture was added to an equal volume of a solution of 0.05 μg/ml dN-SARM1 in 50 mM Tris-HCl (pH 7.5) and mixed. The drug was diluted 6 times in this manner, with the final concentrations being 200, 100, 50, 25, 12.5, 6.25, 3.125 μM, or 200, 50, 12.5, 3.125, 0.78, 0.195, 0.049 μM, respectively. The protein without inhibitors added, being used as control group, was incubated at room temperature for 10 minutes.
50 μM NAD, 50 μM PC6 as substrate and 50 μM NMN as activator were added to the dN-SARM1 protein incubated with the inhibitor and reacted for 30 minutes at room temperature. The concentration of each component was the final concentration in the reaction system.
During the reaction, PC6 fluorescence spectrum dynamics were detected by a microplate reader, wherein the excitation wavelength and emission wavelength for detection were 390 nm and 520 nm, respectively. Finally, the reaction rate was used to express the activity of the protein, and the half inhibitory concentration was calculated. The higher the reaction rate, the stronger the protein activity, and the lower the inhibitory efficiency of the compound.
The dose curve of compounds inhibiting SARM1 enzymatic activity was determined using the above method.

Row | IC50 | Compound
1 | < 1000 nM | CNc1ccc2ncc(-c3ccc4ccncc4c3)n2c1 [Compound 271]
2 | 1000 to 10000 nM | CN1Cc2c(cccc2-c2cnc3ccc(N(C)C(=O)OC(C)(C)C)cn23)C1=O [Compound 286]
3 | 1000 to 10000 nM | CNc1ccc2ncc(-c3cccc4c3CC(=O)N4C)n2c1 [Compound 296]
4 | < 1000 nM | CN(C(=O)OC(C)(C)C)c1ccc2ncc(-c3cccc4cnccc34)n2c1 [Compound 263]
5 | 1000 to 10000 nM | CNc1ccc2ncc(-c3ccc4c(c3)CNC4=O)n2c1 [Compound 266]
6 | 1000 to 10000 nM | CN(C(=O)OC(C)(C)C)c1ccc2ncc(-c3cc4ccn(C)c4cn3)n2c1 [Compound 295]
7 | 1000 to 10000 nM | O=C(Cc1ccc(Cl)cc1)Nc1ccn2c(-c3ccncc3)cnc2c1 [Compound 222]
8 | < 1000 nM | CNc1ccc2ncc(-c3ccncc3F)n2c1 [Compound 261]
9 | 1000 to 10000 nM | CN(C(=O)OC(C)(C)C)c1ccc2ncc(-c3ccccn3)n2c1 [Compound 18]
10 | 1000 to 10000 nM | COC(=O)c1cccc(-c2cnc3ccc(N(C)C(C)=O)cn23)c1 [Compound 308]
11 | < 1000 nM | CN(C(=O)OC(C)(C)C)c1ccc2ncc(-c3ccc4c(c3)CNC4=O)n2c1 [Compound 265]
12 | 1000 to 10000 nM | CN(C(=O)OC(C)(C)C)c1ccc2ncc(-c3cncnc3)n2c1 [Compound 283]
13 | 1000 to 10000 nM | O=C(Nc1cccc(-c2cnc3ccc(-n4cccn4)cn23)c1)C1CCOCC1 [Compound 207]
14 | 1000 to 10000 nM | CN(C(=O)OC(C)(C)C)c1ccc2ncc(-c3ccnc(NC(=O)c4ccccc4)c3)n2c1 [Compound 182]
15 | 1000 to 10000 nM | CNc1ccc2ncc(-c3cncc4ccccc34)n2c1 [Compound 269]
16 | 1000 to 10000 nM | CNc1ccc2ncc(-c3cccc4c3CN(CCOC)C4=O)n2c1 [Compound 290]
17 | < 1000 nM | Brc1cnc2ccc(NC3CCOC3)cn12 (centres unmarked) [Compound 86, 3-bromo-N-(tetrahydrofuran-3-yl)imidazo[1,2-a]pyridin-6-amine]
18 | 1000 to 10000 nM | COC(=O)c1ccn2c(-c3ccccc3)cnc2c1 [Compound 23]
19 | 1000 to 10000 nM | CNc1ccc2ncc(-c3cccc(N)n3)n2c1 [Compound 180]

Row | IC50 | Compound
20 | 1000 to 10000 nM | CN(C(=O)OC(C)(C)C)c1ccc2ncc(-c3cccc4nccn34)n2c1 [Compound 173]
21 | 1000 to 10000 nM | CN(C(=O)OC(C)(C)C)c1ccc2ncc(-c3cccc(S(N)(=O)=O)c3)n2c1 [Compound 61, tert-butyl methyl (3-(3-sulfamoylphenyl)imidazo[1,2-a]pyridin-6-yl)carbamate]
22 | 1000 to 10000 nM | O=S1(=O)NCCOCCNc2ccc3ncc(n3c2)-c2cccc1c2 [Compound 81, (E)-7-oxa-3-thia-4,10-diaza-1(3,6)-imidazo[1,2-a]pyridine-2(1,3)-benzocyclodecane 3,3-dioxide]
23 | < 1000 nM | CNc1ccc2ncc(-c3cccc4c3C(=O)NC4)n2c1 [Compound 165]
24 | < 1000 nM | Ic1cnc2ccc(-n3cccc3)cn12 [Compound 203]
25 | 1000 to 10000 nM | CNc1ccc2ncc(C3CCCc4ncccc43)n2c1 (centres unmarked) [Compound 312]
26 | < 1000 nM | CN(C(=O)OC(C)(C)C)c1ccc2ncc(-c3cccc4cnn(C)c34)n2c1 [Compound 267]
27 | < 1000 nM | NS(=O)(=O)c1cccc(-c2cnc3ccc(N[C@@H]4CCCNC4)cn23)c1 [Compound 89, (R)-3-(6-(piperidin-3-ylamino)imidazo[1,2-a]pyridin-3-yl)benzenesulfonamide]
28 | 1000 to 10000 nM | CNc1ccc2ncc(-c3ccnnc3)n2c1 [Compound 186]
29 | 1000 to 10000 nM | CN(C(=O)OC(C)(C)C)c1ccc2ncc(-c3cncc4[nH]cc(I)c34)n2c1 [Compound 208, tert-butyl (3-(3-iodo-1H-pyrrolo[2,3-c]pyridin-4-yl)imidazo[1,2-a]pyridin-6-yl)(methyl) carbamate]
30 | < 1000 nM | CN(C(=O)OC(C)(C)C)c1ccc2ncc(-c3ccc4ccncc4c3)n2c1 [Compound 270]
31 | < 1000 nM | CN(C(=O)C1CC1)c1ccc2ncc(I)n2c1 [Compound 305]
32 | 1000 to 10000 nM | CNc1ccc2ncc(-c3ccccn3)n2c1 [Compound 76]
33 | 1000 to 10000 nM | CN(C(=O)OC(C)(C)C)c1ccc2ncc(-c3ccc4[nH]ccc4c3)n2c1 [Compound 199]
34 | 1000 to 10000 nM | CNc1ccc2ncc(-c3cncc4[nH]cc(I)c34)n2c1 [Compound 209]
35 | 1000 to 10000 nM | CNc1ccc2ncc(-c3cccc(NC(=O)COCc4ccccc4)c3)n2c1 [Compound 250]
36 | 1000 to 10000 nM | CNc1ccc2ncc(-c3ccc4cn[nH]c4c3)n2c1 [Compound 284]
37 | < 1000 nM | CNc1ccc2ncc(-c3cncc4[nH]ccc34)n2c1 [Compound 258]
38 | 1000 to 10000 nM | CNc1ccc2ncc(-c3cccc4c(I)n[nH]c34)n2c1 [Compound 210, 3-(3-iodo-1H-indazol-7-yl)-N-methylimidazol[1,2-a]pyridin-6-amine hydrochloride]

Row | IC50 | Compound
39 | 1000 to 10000 nM | c1cc(-c2cnc3ccc(-n4cccn4)cn23)c2cc[nH]c2c1 [Compound 202, 3-(1H-indol-4-yl)-6-(1H-pyrazol-1-yl)imidazo[1,2-a]pyridine]
40 | 1000 to 10000 nM | CNc1ccc2ncc(-c3cccc4c3CC(=O)N4)n2c1 [Compound 298]
41 | 1000 to 10000 nM | CN(C(=O)OC(C)(C)C)c1ccc2ncc(-c3ccnc4[nH]ccc34)n2c1 [Compound 184]
42 | < 1000 nM | CN(C)c1ccc2ncc(-c3cccc4c3CNC4=O)n2c1 [Compound 223]
43 | 1000 to 10000 nM | CNc1ccc2ncc(-c3ccncc3)n2c1 [Compound 74]
44 | 1000 to 10000 nM | CNc1ccc2ncc(C3CCCCC3)n2c1 [Compound 85, 3-cyclohexyl-N-methylimidazo[1,2-a]pyridin-6-amine]
45 | < 1000 nM | CNc1ccc2ncc(-c3cccc(NC(=O)COCCOCCOCC(=O)N[C@H](C(=O)N4C[C@H](O)C[C@H]4C(=O)NCc4ccc(-c5scnc5C)cc4)C(C)(C)C)c3)n2c1 [Compound 120, (2S,4R)-1-((S)-2-(tert-butyl)-14-((3-(6-(methylamino)imidazo[1,2-a]pyridin-3-yl)phenyl)amino)-4,14-dioxo-6,9,12-trioxa-3-azatetradecanoyl)-4-hydroxy-N-(4-(4-methylthiazol-5-yl)benzyl)pyrrolidin-2-carboxamide hydrochloride]
46 | < 1000 nM | CN(C(=O)C1CC1)c1ccc2ncc(-c3cccc(N)c3)n2c1 [Compound 306]
47 | 1000 to 10000 nM | CNc1ccc2ncc(-c3cccc(S(=O)(=O)NC)c3)n2c1 [Compound 60, N-methyl-3-(6-(methylamino)imidazo[1,2-a]pyridin-3-yl)benzenesulfonamide]
48 | 1000 to 10000 nM | COCCNc1cccc(-c2cnc3ccc(N4CCOCC4)cn23)c1 [Compound 232]
49 | 1000 to 10000 nM | CNc1ccc2ncc(-c3ccc4[nH]ccc4n3)n2c1 [Compound 197]
50 | 1000 to 10000 nM | CN(C)CCN1Cc2c(cccc2-c2cnc3ccc(N(C)C(=O)OC(C)(C)C)cn23)C1=O [Compound 291]
51 | 1000 to 10000 nM | CNc1ccc2ncc(-c3ccc4cc[nH]c4n3)n2c1 [Compound 192]
52 | < 1000 nM | CNc1ccc2ncc(-c3cccc4c3CNC4=O)n2c1 [Compound 257]
53 | < 1000 nM | CNc1ccc2ncc(-c3cccc4cnccc34)n2c1 [Compound 264]
54 | 1000 to 10000 nM | CC(=O)N(C)c1ccc2ncc(-c3cccc(C(=O)NC4CCOCC4)c3)n2c1 [Compound 309]
55 | 1000 to 10000 nM | CNc1ccc2ncc(-c3cccnc3)n2c1 [Compound 73]
56 | 1000 to 10000 nM | CNc1ccc2ncc(-c3cccc(C(N)=O)c3)n2c1 [Compound 64]
